Patent US8426588B2, “Phenylalanine derivatives” (Ajinomoto Co, Inc., priority 2000, dated 2013)

Tests used:
integrin α4β7 = biological target: T1, integrin α4β7 (Homo sapiens, UniProt P13612+P26010); test: VCAM antagonistic activity (VCAM-1/α4β7 binding assay), RPMI-8866 cells binding to VCAM-1; type: cell-based; conditions: RPMI-8866 human B lymphoma cells binding to recombinant human VCAM-1; binding buffer with 4 mM MnCl2
T1 construct: lymphoma cell strain RPMI-8866 of human B cells, known to express integrin α4β7; endogenous in cells; host or cells: RPMI-8866
T1 sequence (P13612 34-1032): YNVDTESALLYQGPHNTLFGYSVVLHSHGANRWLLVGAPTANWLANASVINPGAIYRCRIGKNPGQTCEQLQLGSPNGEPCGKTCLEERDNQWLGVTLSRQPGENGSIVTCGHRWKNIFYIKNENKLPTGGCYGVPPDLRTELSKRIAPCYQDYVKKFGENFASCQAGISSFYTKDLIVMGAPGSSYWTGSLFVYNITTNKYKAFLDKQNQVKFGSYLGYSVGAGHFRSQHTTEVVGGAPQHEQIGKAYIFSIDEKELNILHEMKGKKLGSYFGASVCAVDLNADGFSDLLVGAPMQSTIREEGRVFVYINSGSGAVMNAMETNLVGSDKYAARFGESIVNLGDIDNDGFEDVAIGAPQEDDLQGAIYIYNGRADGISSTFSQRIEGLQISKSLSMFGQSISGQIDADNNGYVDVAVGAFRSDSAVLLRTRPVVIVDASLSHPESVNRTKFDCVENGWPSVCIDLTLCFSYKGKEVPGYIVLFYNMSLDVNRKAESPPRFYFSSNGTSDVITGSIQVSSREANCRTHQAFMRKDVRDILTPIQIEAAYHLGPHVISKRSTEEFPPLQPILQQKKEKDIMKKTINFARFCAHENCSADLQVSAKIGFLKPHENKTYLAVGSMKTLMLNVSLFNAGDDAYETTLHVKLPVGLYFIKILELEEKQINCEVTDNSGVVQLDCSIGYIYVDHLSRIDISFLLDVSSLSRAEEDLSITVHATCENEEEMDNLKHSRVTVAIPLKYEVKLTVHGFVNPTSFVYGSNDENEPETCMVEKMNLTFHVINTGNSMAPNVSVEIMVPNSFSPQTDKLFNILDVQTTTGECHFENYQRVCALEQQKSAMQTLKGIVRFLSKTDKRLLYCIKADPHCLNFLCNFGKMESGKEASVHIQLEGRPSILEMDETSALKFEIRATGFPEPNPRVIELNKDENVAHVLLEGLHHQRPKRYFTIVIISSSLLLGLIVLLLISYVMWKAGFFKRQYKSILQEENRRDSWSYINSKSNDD
T1 sequence (P26010 20-798): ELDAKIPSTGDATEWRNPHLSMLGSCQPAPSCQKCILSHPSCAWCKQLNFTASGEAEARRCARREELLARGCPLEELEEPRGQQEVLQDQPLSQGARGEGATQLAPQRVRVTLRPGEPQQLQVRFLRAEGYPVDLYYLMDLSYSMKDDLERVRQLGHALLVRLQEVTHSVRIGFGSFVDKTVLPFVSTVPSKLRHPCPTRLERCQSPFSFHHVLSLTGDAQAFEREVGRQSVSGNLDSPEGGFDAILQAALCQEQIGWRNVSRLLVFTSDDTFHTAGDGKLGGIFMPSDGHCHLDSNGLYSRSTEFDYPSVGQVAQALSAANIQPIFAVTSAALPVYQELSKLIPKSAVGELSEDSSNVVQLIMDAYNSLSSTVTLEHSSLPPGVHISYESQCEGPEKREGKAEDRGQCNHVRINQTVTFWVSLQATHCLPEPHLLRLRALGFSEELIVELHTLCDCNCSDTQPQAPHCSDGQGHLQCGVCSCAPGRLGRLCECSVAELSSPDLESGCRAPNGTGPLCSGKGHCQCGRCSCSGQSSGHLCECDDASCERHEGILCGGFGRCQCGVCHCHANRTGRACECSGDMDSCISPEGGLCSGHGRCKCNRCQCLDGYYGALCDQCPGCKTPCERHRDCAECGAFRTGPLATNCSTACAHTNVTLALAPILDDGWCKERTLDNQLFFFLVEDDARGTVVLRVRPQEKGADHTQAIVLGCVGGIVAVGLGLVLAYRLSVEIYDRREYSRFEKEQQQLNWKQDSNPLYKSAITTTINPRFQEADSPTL
Procedure: VCAM Antagonistic Activity (VCAM-1/α4β7 Binding Assay)
The capacity of a test substance antagonistic to the binding of lymphoma cell strain RPMI-8866 of human B cells, known to express integrin α4β7, to VCAM-1 was determined.
(§1) 100 μl/well of a solution (500 ng/ml) of recombinant human VCAM-1 (R & D systems) solution diluted with buffer A (0.1 M NaHCO3, pH 9.6) was added to a micro titer plate having 96 wells (Nunc Maxisorp). After the incubation at 4° C. overnight, unbound VCAM-1 was removed by washing once with PBS. After completion of the washing, a buffer (buffer B) obtained by diluting Block Ace (Dainippon Pharmaceutical Co., Ltd.) with PBS to ¼ concentration was added in an amount of 150 μl/well. After the incubation at room temperature for 1 hour, buffer B was removed and the plate was washed with PBS once.
RPMI-8866 cells were washed with DMEM twice and incubated in Dulbecco modified Eagle medium containing 10 μg/ml of Calcein-AM (Wako Pure Chemical Industries, Ltd.) (SIGMA, hereinafter referred to as “DMEM”) in dark place at 37° C. for 30 minutes to label with fluorescence. The cells were again suspended in a binding buffer (20 mM HEPES, DMEM containing 0.1% BSA) containing 4 mM of MnCl2.
(§2) 50 μl of a test substance of various concentrations obtained by the dilution with the binding buffer was added to the plate. Immediately thereafter, 50 μl (final volume: 100 μl/well) of the fluorescent RPMI-8866 cells (4×10^6 cells/ml) were added thereto, and they were incubated in dark place at room temperature for 30 minutes. After the shaking on a plate shaker (IKA MTS-4) at 800 rpm for 30 seconds, the solution was immediately removed to remove the unbound cells. The fluorescence quantity of the bound cells remaining in the wells was determined with a fluorescent plate reader (Wallac 1420 ARVO multi-label counter) (filter excitation wave length: 485 nm, emission wave length: 535 nm). The fluorescent strength thus obtained is proportional to the number of RPMI-8866 cells bound to VCAM-1 and remaining on the plate. The binding rate of each test material in various concentrations was determined while the fluorescent strength of the test material-free well was determined to be 100%.

integrin α4β1 = biological target: T2, integrin α4β1 (Homo sapiens, UniProt P05556+P13612); test: VCAM antagonist activity (VCAM-1/α4β1 binding assay), Jurkat cells binding to VCAM-1; type: cell-based; conditions: Jurkat human T cells binding to recombinant human VCAM-1; read-out: VCAM antagonistic activity (IC50) α4β1
T2 construct: cell strain Jurkat (ATCC TIB-152) of human T cells, known to express integrin α4β1; endogenous in cells; host or cells: Jurkat (ATCC TIB-152)
Procedure: VCAM Antagonist Activity (VCAM-1/α4β1 Binding Assay)
The capacity of a test substance antagonistic to the binding of cell strain Jurkat (ATCC TIB-152) of human T cells, known to express integrin α4β1, to VCAM-1 was determined.
as §1
Jurkat cells were washed with Dulbecco modified Eagle medium (SIGMA, hereinafter referred to as “DMEM”) twice and then incubated in DMEM containing 10 μg/ml of Calcein-AM (Wako Pure Chemical Industries, Ltd.) at 37° C. in dark place for 30 minutes to label with fluorescence. The cells were again suspended in a binding buffer (20 mM HEPES, DMEM containing 0.1% BSA).
as §2, with “Jurkat” for “RPMI-8866”, “1920” for “1420”

T2 sequence (P05556 21-798, one chain of several): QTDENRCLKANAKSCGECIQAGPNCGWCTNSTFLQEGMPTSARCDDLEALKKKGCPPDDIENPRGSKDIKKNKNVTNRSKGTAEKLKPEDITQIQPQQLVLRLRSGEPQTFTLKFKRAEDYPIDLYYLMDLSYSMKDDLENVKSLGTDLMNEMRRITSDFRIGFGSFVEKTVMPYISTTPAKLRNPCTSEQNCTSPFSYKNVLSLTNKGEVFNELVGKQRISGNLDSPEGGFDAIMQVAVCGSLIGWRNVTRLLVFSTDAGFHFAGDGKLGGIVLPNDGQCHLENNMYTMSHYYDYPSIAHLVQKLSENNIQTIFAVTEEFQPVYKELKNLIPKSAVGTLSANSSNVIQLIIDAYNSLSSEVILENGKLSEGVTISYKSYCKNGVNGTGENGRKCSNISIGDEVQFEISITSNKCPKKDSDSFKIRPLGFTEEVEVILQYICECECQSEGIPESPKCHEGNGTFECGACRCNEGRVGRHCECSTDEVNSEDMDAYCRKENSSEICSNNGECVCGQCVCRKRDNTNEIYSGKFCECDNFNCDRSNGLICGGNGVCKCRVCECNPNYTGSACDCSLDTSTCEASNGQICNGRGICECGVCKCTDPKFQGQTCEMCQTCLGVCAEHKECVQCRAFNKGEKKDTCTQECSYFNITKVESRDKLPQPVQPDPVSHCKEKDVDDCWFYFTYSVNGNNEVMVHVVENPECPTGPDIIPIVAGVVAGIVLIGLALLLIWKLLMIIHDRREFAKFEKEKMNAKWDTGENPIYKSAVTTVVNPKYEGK

| IC50 (integrin α4β7) [nM] | IC50 (integrin α4β1) [nM] | Structure (SMILES) |
| --- | --- | --- |
| 9.2 | 240 | O=C(N[C@@H](Cc1ccc(-n2c(=O)[nH]c3ccccc3c2=O)cc1)C(=O)O)c1c(Cl)cccc1Cl [Example 2] |
| 3.5 | 66 | CCn1c(=O)n(-c2ccc(C[C@H](NC(=O)c3c(Cl)cccc3Cl)C(=O)O)cc2)c(=O)c2ccccc21 [Example 3] |
| 22 | 110 | O=C(O)Cn1c(=O)n(-c2ccc(C[C@H](NC(=O)c3c(Cl)cccc3Cl)C(=O)O)cc2)c(=O)c2ccccc21 [Example 7] |
| 94 | 440 | COc1cccc(OC)c1C(=O)N[C@@H](Cc1ccc(-n2c(=O)c3ccccc3n(C)c2=O)cc1)C(=O)O [Example 9] |
| 19 | 490 | Cn1c(=O)n(-c2ccc(C[C@H](NC(=O)C3CCCCC3)C(=O)O)cc2)c(=O)c2ccccc21 [Example 12] |
| 4.5 | 220 | Cn1c(=O)n(-c2ccc(C[C@H](NC(=O)[C@H]3CC[C@H](C(=O)O)CC3)C(=O)O)cc2)c(=O)c2ccccc21 [Example 13] |
| 43 | 2100 | CCSc1nc2ccccc2c(=O)n1-c1ccc(C[C@H](NC(=O)c2c(Cl)cccc2Cl)C(=O)O)cc1 [Example 17] |
| 23 | 1900 | CSc1nc2ccccc2c(=O)n1-c1ccc(C[C@H](NC(=O)c2c(Cl)cccc2Cl)C(=O)O)cc1 [Example 18] |
| 18 | 7240 | COc1ccc(C(=O)CSc2nc3ccccc3c(=O)n2-c2ccc(C[C@H](NC(=O)c3c(Cl)cccc3Cl)C(=O)O)cc2)cc1 [Example 23] |
| 50 | 630 | Cc1nc2ccccc2c(=O)n1-c1ccc(C[C@H](NC(=O)c2c(Cl)cccc2Cl)C(=O)O)cc1 [Example 31] |
| 64 | 2420 | CCc1nc2ccccc2c(=O)n1-c1ccc(C[C@H](NC(=O)c2c(Cl)cccc2Cl)C(=O)O)cc1 [Example 32] |
| 42 | 2210 | CCCCc1nc2ccccc2c(=O)n1-c1ccc(C[C@H](NC(=O)c2c(Cl)cccc2Cl)C(=O)O)cc1 [Example 34] |
| 68 | 1700 | O=C(N[C@@H](Cc1ccc(-n2c(-c3ccccc3)nc3ccccc3c2=O)cc1)C(=O)O)c1c(Cl)cccc1Cl [Example 35] |
| 6.6 | 490 | COc1nc2ccccc2c(=O)n1-c1ccc(C[C@H](NC(=O)c2c(Cl)cccc2Cl)C(=O)O)cc1 [Example 36] |
| 19 | 200 | CCOc1nc2ccccc2c(=O)n1-c1ccc(C[C@H](NC(=O)c2c(Cl)cccc2Cl)C(=O)O)cc1 [Example 37] |
| 86 | 3410 | CCCCc1nc2ccccc2c(=O)n1-c1ccc(C[C@H](NC(=O)c2c(C)cccc2C)C(=O)O)cc1 [Example 41] |
| 92 | 6730 | Cc1cccc(C)c1C(=O)N[C@@H](Cc1ccc(-n2c(-c3ccccc3)nc3ccccc3c2=O)cc1)C(=O)O [Example 42] |
| 79 | 4230 | Cc1cccc(C)c1C(=O)N[C@@H](Cc1ccc(-n2c(CCl)nc3ccccc3c2=O)cc1)C(=O)O [Example 44] |
| 10.2 | 340 | O=C(N[C@@H](Cc1ccc(-n2c(=O)[nH]c3c(Cl)cccc3c2=O)cc1)C(=O)O)c1c(Cl)cccc1Cl [Example 45] |
| 6.8 | 195 | COc1cccc2c(=O)n(-c3ccc(C[C@H](NC(=O)c4c(Cl)cccc4Cl)C(=O)O)cc3)c(=O)[nH]c12 [Example 46] |
| 76 | 1980 | O=C(N[C@@H](Cc1ccc(-n2c(=O)[nH]c3ccc(Cl)cc3c2=O)cc1)C(=O)O)c1c(Cl)cccc1Cl [Example 47] |
| 28 | 1800 | COc1ccc2[nH]c(=O)n(-c3ccc(C[C@H](NC(=O)c4c(Cl)cccc4Cl)C(=O)O)cc3)c(=O)c2c1 [Example 48] |
| 62.1 | 1180 | O=C(N[C@@H](Cc1ccc(-n2c(=O)[nH]c3cc(C(F)(F)F)ccc3c2=O)cc1)C(=O)O)c1c(Cl)cccc1Cl [Example 49] |
| 7.9 | 1770 | Cc1cccc2c(=O)n(-c3ccc(C[C@H](NC(=O)c4c(Cl)cccc4Cl)C(=O)O)cc3)c(=O)[nH]c12 [Example 50] |
| 30 | 1180 | COc1cc2[nH]c(=O)n(-c3ccc(C[C@H](NC(=O)c4c(Cl)cccc4Cl)C(=O)O)cc3)c(=O)c2cc1OC [Example 51] |
| 55.3 | 1310 | O=C(N[C@@H](Cc1ccc(-n2c(=O)[nH]c3ccc(F)cc3c2=O)cc1)C(=O)O)c1c(Cl)cccc1Cl [Example 52] |
